Results from patent publication US20190002429A1, “Derivatives of Xanthone Compounds” (Agency for Science, Technology and Research, priority 2011, published 2019).
Several values for one entry are separate records, joined by “and”; a condition that tells them apart may be missing. Equal entries are not always repeated. Entries after “also recorded” stand apart in the source; their conditions may differ. Where two headings read alike, the source gives them in different places.

Legend:
[1] = Calcein leakage from DOPC:DOPS liposomes; settings: DOPC:DOPS = 3:1
Procedure: (§1) To further investigate antimicrobial action of the active compounds via inner membrane targeting, a calcein leakage study was performed. In brief, liposomes which mimic bacterial membrane (DOPE: […] The lipids were dissolved in methanol/chloroform (1:2, by volume). The solvent was then dried gently using a constant stream of nitrogen gas. Then, the lipid film was placed under vacuum for at least two hours. […] The hydrated vesicles were freeze-thaw (frozen in liquid nitrogen and warmed in water bath) for at least 7 cycles. Extrusion method using mini-extruder (Avanti Polar Lipid Inc.) was used to produce homogeneous large unilamellar vesicles (LUVs). The extrusion was done for at least 10 cycles using a polycarbonate membrane (Whatman, pore size 100 nm) to obtain LUVs with diameter of 100 nm. To separate the calcein encapsulated vesicles from free calcein, gel filtration column Sephadex G-50 was used. The concentrations of eluted liposomes were determined using total phosphorus determination assay. Leakage of calcein from the liposome induced by AM-series compounds could be monitored using fluorescence spectroscopy (Photon Technology International Model 814) at an excitation wavelength of 490 nm and an emission wavelength of 520 nm. […] Those compounds with […] HC50 values have stronger leakage %. […] To further investigate the inner membrane targeting action of AM-series compounds, E. coli lipid extract was used to construct the liposome. […] Therefore, the outer layer of Gram-negative bacteria (LPS) may play important role to impede the AM-series compounds to reach inner membrane. Calcein leakage data strongly support the active compounds are inner membrane targeting.

[2] = Calcein leakage from DOPE:DOPG liposomes; settings: DOPE:DOPG = 3:1
Procedure: as §1

rabbit cornea = settings: in vivo
Description: The particular model used was a 5 mm diameter corneal epithelial abrasion model. Wound healing was monitored by a slit lamp using flourescein disclosure dye so that the size of the wound could be measured. The compounds were applied topically three times per day.

[3] = system: Klebsiella pneumoniae ATCC10031; experiment: MIC against Klebsiella pneumoniae ATCC10031; type: cell-based
[4] = system: Pseudomonas aeruginosa ATCC27853; experiment: MIC against Pseudomonas aeruginosa ATCC27853; type: cell-based
Gram-positive bacteria = experiment: Antimicrobial activity against Gram-positive bacteria (statement); type: cell-based
MRSA DM21455 = experiment: Drug resistance test, 20 serial passages; type: cell-based, Staphylococcus aureus; settings: MRSA DM21455, FIG. 7
[5] = system: Clinical Staphylococcus aureus DM4583R; experiment: MIC against clinical S. aureus DM4583R; type: cell-based; settings: Source: Eye
[6] = system: Clinical Staphylococcus aureus DM4001; experiment: Cytoplasmic membrane depolarization (DiSC3 dye); type: cell-based; settings: DiSC3 fluorescence; AM-016 at 12.5 ug/mL
Procedure: Membrane potential-sensitive dye 3,3′-dipropylthiadicarbocyanine iodide (DiSC3) was used to determine the cytoplasmic membrane depolarization activity of AM-016. An overnight culture of clinical Staphylococcus aureus DM4001(source: Eye) was allowed to grow in Muller-Hinton broth (MHB) to OD620=0.3-0.4. Then, the bacteria was collected by centrifugation at 2800 r.p.m at 37° C. for 30 minutes and washed with 5 mM HEPES buffer at pH7. […] The cell suspension was then incubated with 0.1M KCl and 0.4 μM DiSC3 at 37° C. for 30 minutes. Dye uptake was monitored by fluorospectrometry (Photon Technology International (PTI) Photomultiplier Detection Systems, model 814) in a stirred cuvette until the fluorescence signal was stable. The desired concentration of AM-016 was added and the fluorescence was monitored at an excitation wavelength of 622 nm and at an emission wavelength of 670 nm. A blank with dye in the absence of bacteria with same concentration of AM-016 was used as a control.

[7] = system: Staphylococcus aureus 10: DB6506 (MRSA04/10) (VISA); experiment: MIC against S. aureus DB6506 (VISA); type: cell-based; settings: no unit in table (Example 10 MICs in μg/ml)
[8] = system: S. aureus and Enterococcus faecalis; settings: 4 strains, sub-inhibitory concentrations, FIG. 8
[9] = system: MRSA QC Strain ATCC BAA1026; experiment: MIC against MRSA QC strain ATCC BAA1026; type: cell-based, Staphylococcus aureus
[10] = system: Streptococcus epidermidis ATCC 12228; experiment: MIC against Streptococcus epidermidis ATCC 12228; type: cell-based
[11] = system: Bacillus cereus ATCC11778; experiment: MIC against Bacillus cereus ATCC11778; type: cell-based
MRSA DB57964/04 = experiment: MIC against MRSA DB57964/04; type: cell-based, Staphylococcus aureus
[12] = system: Enterococcus faecalis ATCC 29212; experiment: MIC against Enterococcus faecalis ATCC 29212; type: cell-based
[13] = system: Enterococcus faecalis ATCC 51299 VRE; experiment: MIC against Enterococcus faecalis ATCC 51299 VRE; type: cell-based; settings: E. faecalis ATCC 51299 VRE; no unit in table (Example 10 MICs in μg/ml)
MRSA DM21595 = experiment: MIC against MRSA DM21595; type: cell-based, Staphylococcus aureus
[14] = system: Streptococcus faecium ATCC 10541; experiment: MIC against Streptococcus faecium ATCC 10541; type: cell-based
[15] = system: Mycobacterium tuberculosis
[16] = system: Straphylococcus aureus ATCC 29737; experiment: MIC against S. aureus ATCC 29737; type: cell-based, Staphylococcus aureus
[17] = system: Enterococcus faecalis 11: DS6527 (VRE 208/11); experiment: MIC against Enterococcus faecalis DS6527 (VRE 208/11); type: cell-based; settings: E. faecalis DS6527 (VRE 208/11); no unit in table (Example 10 MICs in μg/ml)
[18] = system: Clinical Staphylococcus aureus DM4400R; experiment: MIC against clinical S. aureus DM4400R; type: cell-based; settings: Source: Cornea

3,6-bis-[4-(diethylamino)butoxy)]-1-hydroxy-7-methoxy-2,8-bis(3-methylbut-2-enyl)-9H-xanthen-9-one [AM-016]
% Leakage of calcein ([1]; compound:lipid ratio 1:2): 88.43% | % Leakage of calcein ([1]; compound:lipid ratio 1:4): 72.76% | % Leakage of calcein ([1]; compound:lipid ratio 1:8): 37.66% | % Leakage of calcein ([2]; compound:lipid ratio 1:2): 54.43% | % Leakage of calcein ([2]; compound:lipid ratio 1:4): 37.00% | % Leakage of calcein ([2]; compound:lipid ratio 1:8): 21.00% | Cytotoxicity to the rabbit eye in corneal wound healing model (rabbit cornea): does not exhibit any cytotoxicity | Effect on wound healing (percentage wound closing) (rabbit cornea): does not delay wound healing | Minimum inhibition concentration (MIC) [3]: 40 μg/ml and 60.16 μM | Minimum inhibition concentration (MIC) [4]: 50 μg/ml and 75.20 μM | Activity against Gram-positive bacteria (Gram-positive bacteria): active | Development of drug resistance (MRSA DM21455): has difficulty in developing drug resistance | Minimum inhibition concentration (MIC) [5]: 0.78 μg/ml and 1.17 μM | Cytoplasmic membrane depolarization [6]: causes membrane depolarization; also recorded: depolarizes | Minimum inhibitory concentration [7]: 0.78 | Resistance (>4-fold increase in original MIC) in multipassage study [8]: no evidence of resistance or cross-resistance | Minimum inhibition concentration (MIC) [9]: 3.125 μg/ml and 4.70 μM | Minimum inhibition concentration (MIC) [10]: 0.78 μg/ml and 1.17 μM | Minimum inhibition concentration (MIC) [11]: 3.125 μg/ml and 4.70 μM | Minimum inhibition concentration (MIC) (MRSA DB57964/04): 0.78 μg/ml and 1.17 μM | Minimum inhibition concentration (MIC) [12]: 0.78 μg/ml and 1.17 μM | Minimum inhibitory concentration [13]: 1.56 | Minimum inhibition concentration (MIC) (MRSA DM21595; MRSA DM21595, Source: Wound): 0.78 μg/ml and 1.17 μM | MIC (MRSA DM21595; MRSA-21595 (Wound), Example 10, Mueller Hinton broth dilution): 0.395 µg/mL | Minimum inhibition concentration (MIC) [14]: 0.195 μg/ml and 0.295 μM | HC50 (red blood cell): 19.6 µg/mL | Hemolytic concentration, HC50 (red blood cell): 19.6 µg/mL | MIC100 [15]: 4 µM | MIC100 ([15]; value in brackets): 2.66 µg/mL | Minimum inhibition concentration (MIC) [16]: 1.56 μg/ml and 2.35 μM | Minimum inhibitory concentration [17]: 0.098 | Minimum inhibition concentration (MIC) [18]: 0.78 μg/ml and 1.17 μM
